# Experimental data: patent US20140186872A1, “BISACODYL AND ITS ANALOGUES AS DRUGS FOR USE IN THE TREATMENT OF CANCER” (CENTRE NATIONAL DE LA RECHERCHE SCIENTIFIQUE- CNRS, priority 2011, published 2014)
# Counter-ions that a name gives are not always drawn.
# How the values were obtained:
# [1] = system: proliferating TG1 glioblastoma stem cells; assay: ATP-Glo (Cell Titer Glo) cell viability, dose/response, proliferating TG1 cells; type: cell-based, human; conditions: for EC50: Homo sapiens, Glioblastoma stem cell, TG1-A P, experimental protocol of Example 12, ATP-Glo; for EC50 / effect on survival of proliferating TG1 cells: 24 h; for effect on survival of proliferating TG1 cells: own culture medium
# Experimental: The TG1 proliferating cells correspond to cells for which medium is renewed regularly, twice weekly.
# The proliferating cells were put back in 1 mL of fresh NS34 medium, dissociated mechanically by pipetting up and down 100 times with a P1000 micropipette preset to 400 μl and counted with Trypan Blue, after dilution in fresh NS34 medium, to obtain a final suspension of 6×10^5 cells/mL.
# (§1) 50 μl of solution containing cells was deposited per well in a 96-well plate (Greiner #655090).
# (§2) The test compounds, in solution of 100% of DMSO were diluted in culture medium: in the absence of DMSO (medium 0% DMSO) or in the presence of 2% of DMSO (medium 2% DMSO) at concentrations of 200 μM, 100 μM, 80 μM, 60 μM, 40 μM, 20 μM, 10 μM and 2 μM. For all these dilutions the final concentration in DMSO was 2% (see Table 1 below; volumes shown make it possible to construct dose/response curves, in triplicate, for 1 compound on a 96-well plate—FIG. 1)
# 50 μL of solution of compound was added at the concentrations specified above to 50 μL of cells in the plate (FIG. 1) (Final concentration of compounds in contact with the cells: 100 μM, 50 μM, 40 μM, 30 μM, 20 μM, 10 μM, 5 μM, 1 μM (in 1% of final DMSO). Final concentration of positive control: 50 μM in 1% of final DMSO. Final concentration of negative control: 1% final DMSO). […]
# (§3) The test of cell viability was carried out using the Cell Titer Glo kit (Promega #G7571). After thawing of the Cell Titer Glo reagent (1 Buffer vial+1 Substrate vial per plate) protected from the light, the contents of the Buffer vial were transferred to the Substrate vial. 100 μl of Cell Titer Glo reagent was deposited on the cells treated with the compounds.
# (§4) The results, which were given for each well in strokes per second (sps), were converted to percentage cell survival relative to the control 1% of DMSO, which was fixed at 100%.
# (§5) The EC50 was determined as the concentration that gives 50% of the response.
# (§6) Glioblastoma (WHO grade IV glioma) stem cells (TG1, TG16 and OB1) were derived from tumor samples of 3 patients at Sainte Anne Hospital (Paris, France), as previously described (48) and expanded as neurosphere cultures. In continuously proliferating cultures, neurospheres were mechanically dissociated into a single-cell suspension twice a week with 90% renewal of their culture medium. Quiescent glioblastoma stem cells were obtained by non-renewal of the culture medium for 9-16 days following cell seeding. The non-proliferating state was assessed by decreased ability of the cells to incorporate EdU (5-ethynyl-2′-deoxyuridine) using the Click-iT™ EdU Flow Cytometry Assay Kit (Invitrogen, France) according to the manufacturer's instructions. […]
# (§7) Confirmed hit compounds from the primary and secondary screens were purchased from Prestwick Chemical and dissolved in DMSO to obtain 10 mM concentrated stock solutions. Hit compound validation was obtained through dose-response curves on the viability of TG1 glioblastoma stem cells under the same experimental conditions (cell density, treatment duration) as described for the primary and secondary screens. Each compound was tested in triplicate in at least three independent experiments on proliferating and quiescent glioblastoma stem TG1 cells.
# (§8) The EC50 value was determined for each compound by fitting the data points according to the following equation: […]
# (§9) where y represents the expected response (expressed as a percentage of cell viability), x is the chemical compound concentration, Smax and Smin are the maximum and minimum viability responses recorded, respectively, and n is the Hill coefficient. Curve fitting was performed using the Microsoft Excel Solver component.
# [2] = system: quiescent TG1 glioblastoma stem cells; assay: ATP-Glo (Cell Titer Glo) cell viability, dose/response, quiescent TG1 cells; type: cell-based, human; conditions: 24 h; for EC50: Homo sapiens, Glioblastoma stem cell, TG1-A Q, experimental protocol of Example 12, ATP-Glo, read-out: EC50 Quiescent TG1; for effect on survival of quiescent TG1 cells (words): own conditioned medium
# Experimental: The TG1 cells were put into quiescence by keeping the cells in culture without changing the medium from 9 to 16 days. The state of quiescence was verified by non-incorporation of nucleotides into the DNA of the cells (see example 9).
# The quiescent cells were put back in 1 mL of conditioned medium, dissociated mechanically by pipetting up and down 100 times with a P1000 micropipette preset to 400 μl and counted with Trypan Blue, after dilution in conditioned medium, to obtain a final suspension of 8.10^5 cells/mL.
# as §1, §2
# 50 μL of solution of compound was added at the concentrations specified above to 50 μL of cells in the plate (FIG. 1) (Final concentration of compounds in contact with the cells: 100 μM, 50 μM, 40 μM, 30 μM, 20 μM, 10 μM, 5 μM, 1 μM (in 1% of final DMSO). Final concentration of positive control: 50 μM in 1% of final DMSO. Final concentration of negative control: 1% final DMSO).
# The cells were incubated for 23 to 24 hours at 37° C. in an incubator in the presence of 5% CO2 (under humid atmosphere at 95% provided by a reservoir filled with distilled water).
# as §3, §4, §5, §6, §7, §8, §9
# [3] = system: human fetal neural stem cells (f-NSC cells); assay: ATP-Glo cell viability on fetal neural stem cells; type: cell-based
EC50 [1],EC50 [2],Structure (SMILES),further results
> 100 µM,17.1 ± 6.3 µM,Oc1ccc(C(c2ccccc2)c2ccccn2)cc1 (stereo not shown),–
–,–,"O=C(Oc1ccc(C(c2ccc(OC(=O)C(F)(F)F)cc2)c2ccccn2)cc1)C(F)(F)F [Compound 5, (Pyridin-2-ylmethylene)bis(4,1-phenylene)bis(2,2,2-trifluoroacetate)]","effect on survival / toxicity, f-NSC cells [3]: little or no effect; effect on survival of quiescent TG1 cells (words) [2]: effect similar to that described for bisacodyl"
> 100 µM,8 ± 3 µM,Oc1ccc(C(c2ccc(O)cc2)c2cccnc2)cc1,–
–,–,"OCCN1CCN(CC/C=C2/c3ccccc3Sc3ccc(Cl)cc32)CC1 [Zuclopenthixol HCl, reference compound]",effect on survival of proliferating TG1 cells [1]: more selective effects
–,–,"COc1ccc(C(c2ccc(O)cc2)c2ccccn2)cc1 (racemic) [Compound 6, 4-((4-Methoxyphenyl)(pyridin-2-yl)methyl)phenol]","effect on survival / toxicity, f-NSC cells [3]: little or no effect; effect on survival of quiescent TG1 cells (words) [2]: effect similar to that described for bisacodyl"
> 100 µM,8 ± 6 µM,COc1ccc(C(c2ccc(O)cc2)c2ccccn2)cc1 (stereo not shown),–
55 ± 8 µM,40 ± 10 µM,CCCC(C)Oc1ccc(C(c2ccc(O)cc2)c2ccccn2)cc1 (stereo not shown),–
–,–,"CCCCCCCCNC(C)C(O)c1ccc(SC(C)C)cc1 (stereo not shown) [Suloctidil, reference compound]",effect on survival of proliferating TG1 cells [1]: overlapping cytotoxic activity; effect on survival of quiescent TG1 cells (words) [2]: overlapping cytotoxic activity
> 100 µM,1 ± 0.5 µM,Oc1ccc(C(c2ccc(O)cc2)c2ccccn2)cc1 [drawing 52],–
> 100 µM,4 ± 1.4 µM,Oc1ccc(C(c2ccc(Cl)cc2)c2ccccn2)cc1 (stereo not shown),–
–,–,"COc1ccc(C(c2ccc(OC(C)=O)cc2)c2ccccn2)cc1 (stereo not shown) [Compound 7, 4-((4-Methoxyphenyl)(pyridin-2-yl)methyl)phenyl acetate]","effect on survival / toxicity, f-NSC cells [3]: little or no effect; effect on survival of quiescent TG1 cells (words) [2]: effect similar to that described for bisacodyl"
60.8 ± 10.4 µM,14.2 ± 8.8 µM,Oc1ccc(C(c2ccccc2)c2ccc(O)cc2)cc1,–
> 100 µM,2 ± 1 µM,O=C(Oc1ccc(C(c2ccc(OC(=O)C(F)(F)F)cc2)c2ccccn2)cc1)C(F)(F)F [drawing 57],–
–,–,"CC(=O)Oc1ccc(C(c2ccc(O)cc2)c2ccccn2)cc1 (racemic) [Compound 3, 4-((4-Hydroxyphenyl)(pyridin-2-yl)methyl)phenyl acetate]","effect on survival / toxicity, f-NSC cells [3]: little or no effect; effect on survival of quiescent TG1 cells (words) [2]: effect similar to that described for bisacodyl"
> 100 µM,5 µM,Oc1ccc(C(c2ccc(O)cc2)c2cncc(Br)c2)cc1,–
> 100 µM,57.6 ± 0.7 µM,Oc1ccc(C(c2ccccn2)c2ccccc2O)cc1 (stereo not shown),–
> 100 µM,9 ± 4 µM,COc1ccc(C(c2ccc(OC(C)=O)cc2)c2ccccn2)cc1 (stereo not shown) [drawing 60],–
> 100 µM,1.6 ± 0.3 µM,CC(=O)Oc1ccc(C(c2ccc(OC(C)=O)cc2)c2ccccn2)cc1 [drawing 51],–
25 ± 4 µM,22 ± 3 µM,CCCCCCCCCOc1ccc(C(c2ccc(O)cc2)c2ccccn2)cc1 (stereo not shown),–
> 100 µM,17.3 µM,Oc1ccc(C(c2ccc(C(F)(F)F)cc2)c2ccccn2)cc1 (stereo not shown),–
25.5 ± 0.6 µM,22 ± 2 µM,CCCCCCCCCOc1ccc(C(c2ccc(OC(C)=O)cc2)c2ccccn2)cc1 (stereo not shown),–
> 100 µM,1 ± 0.5 µM,CC(=O)Oc1ccc(C(c2ccc(O)cc2)c2ccccn2)cc1 (stereo not shown),–
39 ± 6 µM,3 ± 1 µM,C#CCOc1ccc(C(c2ccc(O)cc2)c2ccccn2)cc1 (stereo not shown),–
> 100 µM,32 ± 2 µM,Nc1ncccc1C(c1ccc(O)cc1)c1ccc(O)cc1,–
> 100 µM,39 ± 2 µM,Oc1ccc(C(c2ccncc2)c2ccc(O)cc2)cc1,–
–,–,"C#CCOc1ccc(C(c2ccc(O)cc2)c2ccccn2)cc1 (racemic) [Compound 9, 4-((4-(Prop-2-yn-1-yloxy)phenyl)(pyridin-2-yl)methyl)phenol]",concentration from which a large decrease in survival of NSC cells occurs [3]: ≥ 40 µM; effect on survival of proliferating TG1 cells [1]: also on the proliferating cells; concentrations causing a considerable decrease in survival of proliferating cells ([1]; proliferating TG1 cells): above 40 μM; effect on survival of quiescent TG1 cells (words) [2]: active on the quiescent cells

Structure (SMILES),EC50 [1],EC50 [2],further results
CC(=O)Oc1ccc(C(c2ccc(O[Si](C)(C)C(C)(C)C)cc2)c2ccccn2)cc1 (stereo not shown),12 ± 0.1 µM,12.1 ± 0.6 µM,–
CC(C)(C)[Si](C)(C)Oc1ccc(C(c2ccc(O)cc2)c2ccccn2)cc1 (stereo not shown),13 ± 5 µM,13 ± 3 µM,–
Clc1ccc(C(c2ccc(Cl)cc2)c2ccccn2)cc1,34 ± 3 µM,35.5 ± 4.5 µM,–
c1ccc(C(c2ccccc2)c2ccccn2)cc1,> 100 µM,81.9 µM,–
